The values that follow come from US9174980B2, “Heterocyclic compounds as inhibitors of leukotriene production” (Boehringer Ingelheim International GmbH, priority 2012, dated 2015).

SMILES strings stand for the structures. Some results are limits rather than exact numbers.

Experiment [1] has as its target T1, recombinant human FLAP protein (Homo sapiens, UniProt P20292).
T1 construct: made in house; host or cells: Sf9 insect cells (membrane fraction, 100,000 x g pellet)
T1 sequence (P20292 1-161): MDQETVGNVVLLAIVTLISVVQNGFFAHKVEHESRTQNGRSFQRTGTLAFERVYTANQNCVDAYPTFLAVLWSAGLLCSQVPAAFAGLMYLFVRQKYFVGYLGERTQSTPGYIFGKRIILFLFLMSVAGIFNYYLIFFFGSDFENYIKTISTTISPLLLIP
Put plainly: FLAP binding assay (Scintillation Proximity Assay, displacement of [125I]L-691,831). The conditions noted are these: read-out: Human FLAP SPA Binding (IC50 nM). In a few lines: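 Scintillation proximity displacement format: 0.08 nM iodinated MK-591 analog [125I]L-691,831 competes with test compound for human FLAP in sf9 insect-cell membranes (5 μg/well, WGA beads), 2 h with shaking, pH 7.5 Tris buffer. 10 μM cold L-691,831 defines non-specific binding.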
For orientation: SPA uses beads or plates that emit light when radiolabelled molecules are held near them.

Experiment [2] concerns synthesis of LTB4 in human whole blood. Put plainly: Human whole blood assay (calcimycin-stimulated LTB4 synthesis). It is filed as cell-based. Conditions: Homo sapiens; read-out: Human Whole Blood LTB4 Assay for FLAP (IC50 nM). Summed up: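 Heparinized human whole blood preincubated with compound 15 min at 37 °C, then stimulated with calcimycin (20 μM final) for 30 min at 37 °C. Plasma LTB4 measured after low-speed centrifugation by antibody-based homogeneous time-resolved fluorescence.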

By IC50 is commonly meant the midpoint of a concentration-inhibition curve. Turning to `CC(C)C(C)(c1ccc(-c2cnc(N)nc2)cc1)c1c[nH]c2c(C(=O)N(C)CCO)cccc12` (stereo not drawn) [Example 99, 3-[1-[4-(2-aminopyrimidin-5-yl)phenyl]-1,2-dimethyl-propyl]-N-(2-hydroxyethyl)-N-methyl-1H-indole-7-carboxamide], the values for the IC50 in experiment [1] and in experiment [2] were 0.93 nM and 1600 nM, respectively.
With `CC(C)C(C)(c1ccc(-c2cnc(N)nc2)cc1)c1cc2ccc(F)cc2[nH]1` (stereo not drawn) [Example 61, 5-{4-[2-(6-fluoro-1H-indol-2-yl)-3-methylbutan-2-yl]phenyl}pyrimidin-2-amine], the figures for the IC50 in experiment [1] and in experiment [2] were 9.3 nM and 1200 nM, respectively.
For `Cn1cc(-c2cc([C@](C)(c3ccc(-c4cnc(N)nc4)nc3)C3CC3)no2)cn1` [Example 201, 5-(5-{(S)-1-Cyclopropyl-1-[5-(1-methyl-1H-pyrazol-4-yl)-isoxazol-3-yl]-ethyl}-pyridin-2-yl)-pyrimidin-2-ylamine], in that order: greater than 2000 nM and 3500 nM.
Taken in the same sequence, the figures for `CNC(=O)c1cccc2c(C3(c4ccc(-c5cnc(N)nc5)cc4)CCC3)c[nH]c12` [Example 6, 3-[1-[4-(2-aminopyrimidin-5-yl)phenyl]cyclobutyl]-N-methyl-1H-indole-7-carboxamide] were 1.5 nM and 29 nM.
For `Nc1ncc(-c2ccc(C3(c4c[nH]c5c(F)cccc45)CCC3)cc2)cn1` [Example 87, 5-{4-[1-(7-fluoro-1H-indol-3-yl)cyclobutyl]phenyl}pyrimidin-2-amine], in that order: 1.6 nM and 400 nM.
Turning to `Cc1ccc(-c2cc(C3(c4ccc(-c5cnc(N)nc5)cc4)CCC3)nn2C)cn1` [Example 20, 5-(4-{1-[1-methyl-5-(6-methylpyridin-3-yl)-1H-pyrazol-3-yl]cyclobutyl}phenyl)pyrimidin-2-amine], the IC50 worked out at 5.1 nM in experiment [1] and 430 nM in experiment [2].
Consider `Cc1cc(C2(c3c[nH]c4ccccc34)CCC2)ccc1-c1cnc(N)nc1` [Example 151, 5-{4-[1-(1H-indol-3-yl)cyclobutyl]-2-methylphenyl}pyrimidin-2-amine], for which the IC50 was 7 nM in experiment [1] and 890 nM in experiment [2].
For `Nc1ncc(-c2ccc(C3(c4c[nH]c5ccccc45)CCC3)cc2)cn1` [Example 81, 5-{4-[1-(1H-indol-3-yl)cyclobutyl]phenyl}pyrimidin-2-amine], in that order: 5.1 nM and 370 nM.
Taken in the same sequence, the figures for `Cn1cc(-c2cnc(C(C)(c3ccc(-c4cnc(N)nc4)cc3)C3CC3)s2)cn1` (stereo not drawn) [Example 173, 5-(4-{1-cyclopropyl-1-[5-(1-methyl-1H-pyrazol-4-yl)-1,3-thiazol-2-yl]ethyl}phenyl)pyrimidin-2-amine] were 7.7 nM and 89 nM.
For `CC(C)C(C)(c1ccc(-c2cnc(N)nc2)cc1)c1c[nH]c2cc(C(=O)N3CCC(O)C3)ccc12` (stereo not drawn) [Example 80, (3-{2-[4-(2-aminopyrimidin-5-yl)phenyl]-3-methylbutan-2-yl}-1H-indol-6-yl)(3-hydroxypyrrolidin-1-yl)methanone], in that order: 1.6 nM and greater than 5000 nM.
For `CC(C)C(C)(c1ccc(-c2cnc(N)nc2)cc1)c1cn(Cc2ccccn2)c2c(F)cccc12` (stereo not drawn) [Example 41, 5-(4-{2-[7-fluoro-1-(pyridin-2-ylmethyl)-1H-indol-3-yl]-3-methylbutan-2-yl}phenyl)pyrimidin-2-amine], the IC50 in experiment [1] was determined as 3.4 nM; in experiment [2], 1300 nM.
Taken in the same sequence, the figures for `Nc1ncc(-c2ccc(C3(c4c[nH]c5ccccc45)CCCC3)cc2)cn1` [Example 88, 5-{4-[1-(1H-indol-3-yl)cyclopentyl]phenyl}pyrimidin-2-amine] were 1.7 nM and 430 nM.
Turning to `CC(C)C(C)(c1ccc(-c2cnc(N)nc2)cc1)c1c[nH]c2cc(C(=O)N3CC(O)C3)ccc12` (stereo not drawn) [Example 78, (3-{2-[4-(2-aminopyrimidin-5-yl)phenyl]-3-methylbutan-2-yl}-1H-indol-6-yl)(3-hydroxyazetidin-1-yl)methanone], the figures for the IC50 in experiment [1] and in experiment [2] were 1.6 nM and greater than 5000 nM, respectively.
For `COC(=O)c1c[nH]cc1C1(c2ccc(-c3cnc(N)nc3)cc2)CCC1` [Example 162, methyl 4-[1-[4-(2-aminopyrimidin-5-yl)phenyl]cyclobutyl]-1H-pyrrole-3-carboxylate], in that order: 210 nM and 1500 nM.
For `CC(C)(O)Cn1cc(-c2cc(C(C)(c3ccc(-c4cnc(N)nc4)cc3)C3CC3)no2)cn1` (stereo not drawn) [Example 184, 1-[4-(3-{1-[4-(2-aminopyrimidin-5-yl)phenyl]-1-cyclopropylethyl}-1,2-oxazol-5-yl)-1H-pyrazol-1-yl]-2-methylpropan-2-ol], in that order: 8.4 nM and 97 nM.
Taken in the same sequence, the figures for `Nc1ncc(-c2ccc(C3(c4c[nH]c5c(C(=O)NCCS(N)(=O)=O)cccc45)CCC3)cc2)cn1` [Example 4, 3-{1-[4-(2-aminopyrimidin-5-yl)phenyl]cyclobutyl}-N-(2-sulfamoylethyl)-1H-indole-7-carboxamide] were 1.2 nM and 2800 nM.
Consider `Nc1ncc(-c2ccc(C3(c4n[nH]c(-c5cccnc5)n4)CCOCC3)cc2)cn1` [Example 74, 5-(4-{4-[5-(pyridin-3-yl)-1H-1,2,4-triazol-3-yl]tetrahydro-2H-pyran-4-yl}phenyl)pyrimidin-2-amine], for which the results for the IC50 in experiment [1] and in experiment [2] were 780 nM and 3500 nM, respectively.
For `Cn1c(C2(c3ccc(-c4cnc(N)nc4)cc3)CCC2)nc2ccccc21` [Example 136, 5-{4-[1-(1-methyl-1H-benzimidazol-2-yl)cyclobutyl]phenyl}pyrimidin-2-amine], in that order: 190 nM and greater than 5000 nM.
Taken in the same sequence, the figures for `CC(C)C(C)(c1ccc(-c2cnc(N)nc2)cc1)c1nnc(-c2ccccc2)o1` (stereo not drawn) [Example 97, 5-{4-[3-methyl-2-(5-phenyl-1,3,4-oxadiazol-2-yl)butan-2-yl]phenyl}pyrimidin-2-amine] were 14 nM and 4100 nM.
Taken in the same sequence, the figures for `CC(c1ccc(-c2cnc(N)nc2)cc1)(c1cc(O)n(-c2ccccc2)n1)C1CC1` (stereo not drawn) [Example 175, 3-{1-[4-(2-aminopyrimidin-5-yl)phenyl]-1-cyclopropylethyl}-1-phenyl-1H-pyrazol-5-ol] were 10 nM and 1100 nM.
As to `Nc1ncc(-c2ccc(C3(c4c[nH]c5c(C(=O)N6CC[C@H](O)C6)cccc45)CCC3)cc2)cn1` [Example 135, (3-{1-[4-(2-aminopyrimidin-5-yl)phenyl]cyclobutyl}-1H-indol-7-yl)[(3S)-3-hydroxypyrrolidin-1-yl]methanone], the IC50 in experiment [1] is 2.3 nM; in experiment [2], 500 nM.
For the compound `CC(C)C(C)(c1ccc(-c2ccc(N)nc2)cc1)c1c[nH]c2ccccc12` (stereo not drawn) [Example 66, 5-{4-[2-(1H-indol-3-yl)-3-methylbutan-2-yl]phenyl}pyridin-2-amine], the IC50 amounted to 1.2 nM in experiment [1] and 170 nM in experiment [2].
For `CC(C)C(C)(c1ccc(-c2cnc(N)nc2)cc1)c1cc2c(F)cccc2[nH]1` (stereo not drawn) [Example 62, 5-{4-[2-(4-fluoro-1H-indol-2-yl)-3-methybutan-2-yl]phenyl}pyrimidin-2-amine], in that order: 18 nM and 2300 nM.
`CC(C)(O)Cn1cc(-c2coc(C(C)(c3ccc(-c4cnc(N)nc4)cc3)C3CC3)n2)cn1` (stereo not drawn) [Example 202, 1-[4-(2-{1-[4-(2-Amino-pyrimidin-5-yl)-phenyl]-1-cyclopropyl-ethyl}-oxazol-4-yl)-pyrazol-1-yl]-2-methyl-propan-2-ol]: the IC50 in experiment [1] was found to be 69 nM; in experiment [2], 230 nM.
For `CC(C)C(C)(c1ccc(-c2cnc(N)nc2)nc1)c1nc(-c2cnn(C)c2)co1` (stereo not drawn) [Example 168, 5-(5-{3-methyl-2-[4-(1-methyl-1H-pyrazol-4-yl)-1,3-oxazol-2-yl]butan-2-yl}pyridin-2-yl)pyrimidin-2-amine], in that order: 87 nM and 390 nM.
Consider `CC(C)C(C)(c1ccc(-c2cnc(N)nc2)cc1)c1cn(Cc2ccccn2)c2cc(F)ccc12` (stereo not drawn) [Example 49, 5-(4-{2-[6-fluoro-1-(pyridin-2-ylmethyl)-1H-indol-3-yl]-3-methylbutan-2-yl}phenyl)pyrimidin-2-amine], for which the IC50 in experiment [1] turned out to be 2 nM; in experiment [2], 810 nM.
Taken in the same sequence, the figures for `Cn1nc(C(c2ccc(-c3cnc(N)nc3)cc2)C(C)(C)C)c2ccccc21` (stereo not drawn) [Example 44, 5-[4-[2,2-dimethyl-1-(1-methylindazol-3-yl)propyl]phenyl]pyrimidin-2-amine] were 21 nM and greater than 5000 nM.
`COc1cccc2c(C(C)(c3ccc(-c4cnc(N)nc4)cc3)C(C)C)c[nH]c12` (stereo not drawn) [Example 45, 5-{4-[2-(7-methoxy-1H-indol-3-yl)-3-methylbutan-2-yl]phenyl}pyrimidin-2-amine]: the concentration for half-maximal inhibition (IC50) in experiment [1] came to 1.4 nM; in experiment [2], 260 nM.
Taken in the same sequence, the figures for `CS(=O)(=O)CCNC(=O)c1cccc2c(C3(c4ccc(-c5cnc(N)nc5)cc4)CCC3)c[nH]c12` [Example 3, 3-{1-[4-(2-aminopyrimidin-5-yl)phenyl]cyclobutyl}-N-[2-(methylsulfonyl)ethyl]-1H-indole-7-carboxamide] were 1.4 nM and 490 nM.
`Nc1ncc(-c2ccc(C3(c4nc5ccccc5[nH]4)CCC3)cn2)cn1` [Example 137, 5-{5-[1-(1H-benzimidazol-2-yl)cyclobutyl]pyridin-2-yl}pyrimidin-2-amine]: the IC50 in experiment [1] is 410 nM; in experiment [2] it was greater than 5000 nM.
